EC50 data for 18 compounds are collected here from US20220298186A1, “BIARYL DIALKYL PHOSPHINE OXIDE FPR2 AGONISTS” (BRISTOL-MYERS SQUIBB COMPANY, priority 2019, published 2022).

In assay [1] the target is T1, human FPR2 receptors (Homo sapiens, UniProt P25090).
T1 sequence (P25090 1-351): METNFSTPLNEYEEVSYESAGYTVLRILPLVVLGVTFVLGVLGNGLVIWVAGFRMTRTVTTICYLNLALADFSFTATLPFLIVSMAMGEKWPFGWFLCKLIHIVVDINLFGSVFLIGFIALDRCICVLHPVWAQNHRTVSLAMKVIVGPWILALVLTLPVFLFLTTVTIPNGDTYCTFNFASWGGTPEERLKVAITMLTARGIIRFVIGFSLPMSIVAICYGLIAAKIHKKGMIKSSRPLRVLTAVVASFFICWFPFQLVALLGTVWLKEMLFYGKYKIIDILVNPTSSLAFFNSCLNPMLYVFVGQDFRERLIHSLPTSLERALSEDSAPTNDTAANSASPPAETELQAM
As to the kind of experiment: FPR2 cyclic adenosine monophosphate (cAMP) assay. Format: cell-based. Particulars: CHO cells overexpressing human FPR2; forskolin 5 μM, IBMX 200 μM; 30 min at rt; inhibition of cAMP production (HTRF); read-out: hFPR2 cAMP2 EC50. An excerpt:
(§1) N-formyl peptide receptors (FPRs) are a family of chemo attractant receptors that facilitate leukocyte response during inflammation. FPRs belong to the seven-transmembrane G protein-coupled receptor superfamily and are linked to inhibitory G-proteins (Gi). Three family members (FPR1, FPR2 and FPR3) have been identified in humans and are predominantly found in myeloid cells with varied distribution and have also been reported in multiple organs and tissues. After agonist binding, the FPRs activate a multitude of physiological pathways, such as intra cellular signaling transduction, Ca^2+ mobilization and transcription. The family interacts with a diverse set of ligands that includes proteins, polypeptides and fatty acid metabolites which activate both pro-inflammatory and pro-resolution downstream responses. FPR2 and FPR1 Cyclic Adenosine Monophosphate (cAMP) Assays were used to measure the activity of the compounds in this patent.
(§2) FPR2 and FPR1 Cyclic Adenosine Monophosphate (cAMP) Assays. A mixture of forskolin (5 μM final for FPR2 or 10 μM final for FPR1) and IBMX (200 μM final) were added to 384-well Proxiplates (Perkin-Elmer) pre-dotted with test compounds in DMSO (1% final) at final concentrations in the range of 0.020 nM to 100 μM. Chinese Hamster Ovary cells (CHO) overexpressing human FPR1 or human FPR2 receptors were cultured in F-12 (Ham's) medium supplemented with 10% qualified FBS, 250 μg/mL zeocin and 300 μg/mL hygromycin (Life Technologies). Reactions were initiated by adding 2,000 human FPR2 cells per well or 4,000 human FPR1 cells per well in Dulbecco's PBS (with calcium and magnesium) (Life Technologies) supplemented with 0.1% BSA (Perkin-Elmer). The reaction mixtures were incubated for 30 min at rt. The level of intracellular cAMP was determined using the HTRF HiRange cAMP assay reagent kit (Cisbio) according to manufacturer's instruction. Solutions of cryptate conjugated anti-cAMP and d2 flurorophore-labelled cAMP were made in a supplied lysis buffer separately. Upon completion of the reaction, the cells were lysed with equal volume of the d2-cAMP solution and anti-cAMP solution. After a 1-h rt incubation, time-resolved fluorescence intensity was measured using the Envision (Perkin-Elmer) at 400 nm excitation and dual emission at 590 nm and 665 nm. A calibration curve was constructed with an external cAMP standard at concentrations ranging from 1 μM to 0.1 μM by plotting the fluorescent intensity ratio from 665 nm emission to the intensity from the 590 nm emission against cAMP concentrations. The potency and activity of a compound to inhibit cAMP production was then determined by fitting to a 4-parametric logistic equation from a plot of cAMP level versus compound concentrations.
(§3) The examples disclosed below were tested in the FPR2 and FPR1 cAMP assay described above and found having FPR2 and/or FPR1 agonist activity. Table 1 below lists EC50 values in the FPR2 and FPR1 cAMP assays measured for the following examples.

For assay [2], the target named is T2, human FPR1 receptors (Homo sapiens, UniProt P21462).
T2 sequence (P21462 1-350): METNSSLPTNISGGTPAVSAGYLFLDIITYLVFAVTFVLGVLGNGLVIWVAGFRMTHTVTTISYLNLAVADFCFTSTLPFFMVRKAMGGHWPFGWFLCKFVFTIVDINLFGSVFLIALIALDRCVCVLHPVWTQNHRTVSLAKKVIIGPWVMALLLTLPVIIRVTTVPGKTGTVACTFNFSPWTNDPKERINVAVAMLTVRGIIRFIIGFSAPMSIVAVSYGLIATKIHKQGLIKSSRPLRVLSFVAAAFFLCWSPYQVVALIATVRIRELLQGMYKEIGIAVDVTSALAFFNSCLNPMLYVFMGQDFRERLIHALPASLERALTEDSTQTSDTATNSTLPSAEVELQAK
In words: FPR1 cyclic adenosine monophosphate (cAMP) assay. Format: cell-based. Particulars: CHO cells overexpressing human FPR1; forskolin 10 μM, IBMX 200 μM; 30 min at rt; inhibition of cAMP production (HTRF); read-out: hFPR1 cAMP EC50.
From the text: as §1, §2, §3

As for `CP(C)(=O)c1ccccc1-c1ccc(N2CCC[C@@H](NC(=O)Nc3ccc(Cl)cc3F)C2=O)c(F)c1F` [Example 1, (R)-1-(4-Chloro-2-fluorophenyl)-3-(1-(2′-(dimethylphosphoryl)-2,3-difluoro-[1,1′-biphenyl]-4-yl)-2-oxopiperidin-3-yl)urea], the EC50 – broadly, the concentration giving half of the maximal effect – amounted to 0.12 nM in assay [1] and 110 nM in assay [2].
In the same order, the values of `CCP(=O)(CC)c1ccccc1-c1cc(F)c(N2CCC[C@@H](NC(=O)Nc3ncc(Cl)cc3F)C2=O)c(F)c1` [Example 15, 1-(5-Chloro-3-fluoropyridin-2-yl)-3-[(3R)-1-[2′-(diethylphosphoryl)-3,5-difluoro-[1,1′-biphenyl]-4-yl]-2-oxopiperidin-3-yl]urea] are 8.3 nM and 7000 nM.
Turning to `CP(C)(=O)c1ccccc1-c1ccc(N2CCC[C@@H](NC(=O)Nc3ccc(Cl)cc3F)C2=O)cn1` [Example 19, 1-(4-Chloro-2-fluorophenyl)-3-[(3R)-1-{6-[2-(dimethylphosphoryl)phenyl]pyridin-3-yl}-2-oxopiperidin-3-yl]urea], the 50% effective concentration (EC50) is 16.7 nM in assay [1] and 140 nM in assay [2].
In the same order, the values of `CP(C)(=O)c1ccccc1-c1ccc(N2CCC[C@@H](NC(=O)Nc3ccc(C(F)(F)F)cn3)C2=O)c(F)c1F` [Example 12, 3-[(3R)-1-[2′-(Dimethylphosphoryl)-2,3-difluoro-[1,1′-biphenyl]-4-yl]-2-oxopiperidin-3-yl]-1-[5-(trifluoromethyl)pyridin-2-yl]urea] are 2.7 nM and 1300 nM.
The like results for `CP(C)(=O)c1ccccc1-c1ccc(N2CCC[C@@H](NC(=O)Nc3ncc(Cl)cc3F)C2=O)c(F)c1F` [Example 9, 1-(5-Chloro-3-fluoropyridin-2-yl)-3-[(3R)-1-[2′-(dimethylphosphoryl)-2,3-difluoro-[1,1′-biphenyl]-4-yl]-2-oxopiperidin-3-yl]urea] were, in that order, 2.2 nM and 1400 nM.
Turning to `CCP(=O)(CC)c1ccccc1-c1cc(F)c(N2CCC[C@@H](NC(=O)Nc3ccc(Cl)cc3F)C2=O)c(F)c1` [Example 3, 1-(4-Chloro-2-fluorophenyl)-3-[(3R)-1-[2′-(diethylphosphoryl)-3,5-difluoro-[1,1′-biphenyl]-4-yl]-2-oxopiperidin-3-yl]urea], the EC50 worked out at 0.17 nM in assay [1] and 420 nM in assay [2].
Take `CP(C)(=O)c1ccccc1-c1cc(F)c(N2CCC[C@@H](NC(=O)Nc3cnc(Cl)cn3)C2=O)c(F)c1` [Example 17, 1-(5-Chloropyrazin-2-yl)-3-[(3R)-1-[2′-(dimethylphosphoryl)-3,5-difluoro-[1,1′-biphenyl]-4-yl]-2-oxopiperidin-3-yl]urea]: the values for the EC50 in assay [1] and in assay [2] were 8.6 nM and over 10000 nM, respectively.
In the same order, the values of `COc1ccc(NC(=O)N[C@@H]2CCCN(c3c(F)cc(-c4ccccc4P(C)(C)=O)cc3F)C2=O)cc1` [Example 13, 3-[(3R)-1-[2′-(Dimethylphosphoryl)-3,5-difluoro-[1,1′-biphenyl]-4-yl]-2-oxopiperidin-3-yl]-1-(4-methoxyphenyl)urea] are 5.6 nM and 2400 nM.
In the same order, the values of `CP(C)(=O)c1ccccc1-c1cc(F)c(N2CCC[C@@H](NC(=O)Nc3ncc(Cl)cc3F)C2=O)c(F)c1` [Example 20, 1-(5-Chloro-3-fluoropyridin-2-yl)-3-[(3R)-1-[2′-(dimethylphosphoryl)-3,5-difluoro-[1,1′-biphenyl]-4-yl]-2-oxopiperidin-3-yl]urea] are 43.2 nM and over 10000 nM.
In the same order, the values of `CP(C)(=O)c1ccccc1-c1cc(F)c(N2CCC[C@@H](NC(=O)Nc3ccc(OC(F)(F)F)cc3)C2=O)c(F)c1` [Example 21, 3-[(3R)-1-[2′-(Dimethylphosphoryl)-3,5-difluoro-[1,1′-biphenyl]-4-yl]-2-oxopiperidin-3-yl]-1-[4-(trifluoromethoxy)phenyl] urea] are 22.1 nM and over 10000 nM.
Consider `CP(C)(=O)c1ccccc1-c1ccc(N2CCC[C@@H](NC(=O)Nc3ncc(C(F)(F)F)cc3F)C2=O)c(F)c1F` [Example 18], for which the EC50 was 11.6 nM in assay [1] and over 10000 nM in assay [2].
Take `CP(C)(=O)c1ccccc1-c1ccc(N2CCC[C@@H](NC(=O)Nc3ccc(Cl)cc3F)C2=O)c(C2CC2)c1` [Example 5, 1-(4-Chloro-2-fluorophenyl)-3-[(3R)-1-[3-cyclopropyl-2′-(dimethylphosphoryl)-[1,1′-biphenyl]-4-yl]-2-oxopiperidin-3-yl]urea]: the EC50 in assay [1] is 0.76 nM; in assay [2], 17 nM.
The like results for `CP(C)(=O)c1ccccc1-c1ccc(N2CCC[C@@H](NC(=O)Nc3ncc(Cl)cc3F)C2=O)c(C2CC2)c1` [Example 4, 1-(5-Chloro-3-fluoropyridin-2-yl)-3-[(3R)-1-[3-cyclopropyl-2′-(dimethylphosphoryl)-[1,1′-biphenyl]-4-yl]-2-oxopiperidin-3-yl]urea] were, in that order, 0.63 nM and 7.1 nM.
For the compound `CP(C)(=O)c1ccccc1-c1ccc(N2CCC[C@@H](NC(=O)Nc3ccc(OC(F)(F)F)cc3F)C2=O)c(F)c1F` [Example 16, 3-[(3R)-1-[2′-(Dimethylphosphoryl)-2,3-difluoro-[1,1′-biphenyl]-4-yl]-2-oxopiperidin-3-yl]-1-[2-fluoro-4-(trifluoromethoxy)phenyl] urea], the EC50 in assay [1] was determined as 8.4 nM; in assay [2] it was 1800 nM.
`COc1ccc(NC(=O)N[C@@H]2CCCN(c3ccc(-c4ccccc4P(C)(C)=O)c(F)c3F)C2=O)c(F)c1` [Example 6, 3-[(3R)-1-[2′-(Dimethylphosphoryl)-2,3-difluoro-[1,1′-biphenyl]-4-yl]-2-oxopiperidin-3-yl]-1-(2-fluoro-4-methoxyphenyl)urea]: the EC50 in assay [1] came out at 0.86 nM; in assay [2] it was 430 nM.
`CP(C)(=O)c1ccccc1-c1ccc(N2CCC[C@@H](NC(=O)Nc3cnc(Cl)cn3)C2=O)c(F)c1F` [Example 8, 1-(5-Chloropyrazin-2-yl)-3-[(3R)-1-[2′-(dimethylphosphoryl)-2,3-difluoro-[1,1′-biphenyl]-4-yl]-2-oxopiperidin-3-yl]urea]: the EC50 in assay [1] amounted to 1.5 nM; in assay [2], 1100 nM.
Turning to `CP(C)(=O)c1ccccc1-c1ccc(N2CCC[C@@H](NC(=O)Nc3ccc(C(F)(F)F)cc3F)C2=O)c(F)c1F` [Example 2, 3-[(3R)-1-[2′-(Dimethylphosphoryl)-2,3-difluoro-[1,1′-biphenyl]-4-yl]-2-oxopiperidin-3-yl]-1-[2-fluoro-4-(trifluoromethyl)phenyl] urea], the concentration for a half-maximal effect (EC50) in assay [1] was found to be 0.18 nM; in assay [2], 300 nM.
For the compound `CP(C)(=O)c1ccccc1-c1cc(F)c(N2CCC[C@@H](NC(=O)Nc3ccc(Cl)cc3F)C2=O)c(F)c1` [Example 7, 1-(4-Chloro-2-fluorophenyl)-3-[(3R)-1-[2′-(dimethylphosphoryl)-3,5-difluoro-[1,1′-biphenyl]-4-yl]-2-oxopiperidin-3-yl]urea], the EC50 in assay [1] was 0.79 nM; in assay [2] it was 2600 nM.
